Experimental data reported in patent publication US8835134B2, “Cycloastragenol monoglucoside, preparation, pharmaceutical composition and application thereof” (Tianjin Institute of Pharmaceutical Research, priority 2007, dated 2014).

Tested on: anesthetized open-chest dogs
Assay: Hemodynamics of anesthetized open-chest dogs, intravenous infusion
Type: in vivo, mongrel dogs
Protocol: The animals were anesthetized by intravenous injection of 30 mg/kg sodium pentobarbital, tracheally intubated, and mechanically ventilated with positive air pressure. Left thoracotomy was performed through the fourth intercostal space and the heart was suspended in a pericardial cradle, the aortic root was isolated and a probe of blood flow meter (12 or 14 mm in diameter) was fixed to measure the aortic blood flow as a representation of cardiac output (CO), the circumflex branch of left coronary artery was isolated and a probe of blood flow meter (2 or 2.5 mm in diameter) was fixed to measure the coronary blood flow (CBF). A polyethylene catheter filled with heparin physiological saline was inserted through cardiac apex into the left ventricle to measure the left ventricular pressure (LVP) and left ventricular end-diastolic pressure (LVEDP), Peak positive and peak negative first derivatives of the LVP (+ LVdp/dt and − LVdp/dt) were calculated with the Acknowledge software. The systolic blood pressure (SBP), diastolic blood pressure (DBP) and mean arterial pressure (MAP) were measured by polyethylene catheter via the femoral artery, ECG □ was measured by a AC-601G ECG amplifier. The above-mentioned analog signal was input into a data acquisition workstation (MP100, BIOPAC Systems, USA) to a computer running Acknowledge (version 3.7.1).
After surgery, various indexes before administration were recorded until the indexes were stable, and then intravenous infusion administration was conducted. Thirty dogs were divided into five groups (six dogs in each group), the experiment groups were given 0.15, 0.3, 0.6 mg/kg of ASP-[…] respectively, the normal control group was given 1 ml/kg of solvent, and the positive control group was given 0.3 mg/kg of astragaloside IV. The delivery volumes were 15 ml for each dog was and the delivery velocity was 1 ml/min. The indexes were recorded at 5, 10, 15, 20, 30, 45, 60, 90 and 120 mins after drug administration. At the end of experiment, the hearts were excised and weighted. The myocardial blood flow for per hectogram (CF), coronary resistance (CR), cardiac index (CI), left ventricular work (LVW) and total peripheral resistance (TPR) were calculated according to the following formulae: CF=CBF×[…]/heart weight CR=MAP/CF CI=CO/0.11×(body weight)^2/3 LVW=CO×(MAP−5)×1.052×0.0136 TPR=MAP×79.92/CO
Data are expressed as mean±SD ( x±s), the paired t-test was used to compare the significance between before and after administration, the unpaired t-test was adopted for comparison between groups.

[1] = 0.15 mg/kg iv, 90 min after administration
[2] = 0.15 mg/kg iv, 120 min after administration
[3] = 0.15 mg/kg iv, before administration
[4] = 0.3 mg/kg iv, 5 min after administration
[5] = 0.3 mg/kg iv, 10 min after administration
[6] = 0.3 mg/kg iv, 15 min after administration
[7] = 0.3 mg/kg iv, 20 min after administration
[8] = 0.3 mg/kg iv, 30 min after administration

CC(C)(O)[C@@H]1CC[C@](C)([C@H]2[C@@H](O)C[C@@]3(C)C4C[C@H](OC5OC(CO)C(O)C(O)C5O)C5C(C)(C)[C@@H](O)CC[C@@]56C[C@@]46CC[C@]23C)O1 (stereo partly drawn) [CMG, Cycloastragenol-6-O-β-D-glucoside]
CO change vs before administration [1]: (−0.15 ± 0.24) L/min | CR [1]: 1.36 ± 0.37 mmHg/ml/min/100 g | CR change vs before administration [1]: (0.00 ± 0.24) mmHg/ml/min/100 g | LVEDP [1]: 1.4 ± 2.4 mmHg | LVEDP change vs before administration [1]: (−0.40 ± 0.43) mmHg | LVP [1]: 101 ± 18 mmHg | LVP change vs before administration [1]: (−3.5 ± 7.6) mmHg | LVW [1]: 0.96 ± 0.24 kg · m | LVW change vs before administration [1]: (−0.16 ± 0.34) kg · m | TPR [1]: 5576 ± 2153 dyn · s/cm^5 | TPR change vs before administration [1]: (426 ± 770) dyn · s/cm^5 | dp/dt [1]: 1121 ± 412 mmHg/s | dp/dt change vs before administration [1]: (−28 ± 90) mmHg/s | −dp/dt [1]: −857 ± 243 mmHg/s | −dp/dt change vs before administration [1]: (31 ± 128) mmHg/s | CF [2]: 56.5 ± 16.6 ml/min/100 g | CF change vs before administration [2]: (−1.2 ± 13.7) ml/min/100 g | CI [2]: 1.79 ± 0.37 L/min/m^2 | CI change vs before administration [2]: (−0.29 ± 0.45) L/min/m^2 | CO [2]: 1.03 ± 0.19 L/min | CO change vs before administration [2]: (−0.17 ± 0.28) L/min | CR [2]: 1.35 ± 0.44 mmHg/ml/min/100 g | CR change vs before administration [2]: (−0.01 ± 0.25) mmHg/ml/min/100 g | LVEDP [2]: 1.6 ± 2.3 mmHg | LVEDP change vs before administration [2]: (−0.15 ± 0.44) mmHg | LVP [2]: 103 ± 22 mmHg | LVP change vs before administration [2]: (−1.8 ± 8.1) mmHg | LVW [2]: 0.99 ± 0.36 kg · m | LVW change vs before administration [2]: (−0.13 ± 0.37) kg · m | TPR [2]: 5734 ± 1774 dyn · s/cm^5 | TPR change vs before administration [2]: (584 ± 1030) dyn · s/cm^5 | dp/dt [2]: 1138 ± 387 mmHg/s | dp/dt change vs before administration [2]: (−11 ± 92) mmHg/s | −dp/dt [2]: −897 ± 263 mmHg/s | −dp/dt change vs before administration [2]: (−9 ± 176) mmHg/s | CF [3]: 57.7 ± 24.1 ml/min/100 g | CI [3]: 2.08 ± 0.63 L/min/m^2 | CO [3]: 1.21 ± 0.38 L/min | CR [3]: 1.35 ± 0.44 mmHg/ml/min/100 g | LVEDP [3]: 1.8 ± 2.2 mmHg | LVP [3]: 105 ± 22 mmHg | LVW [3]: 1.12 ± 0.42 kg · m | TPR [3]: 5150 ± 2321 dyn · s/cm^5 | dp/dt [3]: 1150 ± 391 mmHg/s | −dp/dt [3]: −888 ± 310 mmHg/s | ±LVdp/dtmax (0.15 mg/kg iv, within 120 min): no significant change | LVEDP maximum decrease (0.3 mg/kg iv): 1.5±0.8 mmHg | CF [4]: 51.7 ± 20.7 ml/min/100 g | CF change vs before administration [4]: (1.5 ± 5.3) ml/min/100 g | CI [4]: 2.09 ± 0.86 L/min/m^2 | CI change vs before administration [4]: (0.11 ± 0.16) L/min/m^2 | CO [4]: 1.16 ± 0.39 L/min | CO change vs before administration [4]: (0.06 ± 0.09) L/min | CR [4]: 1.57 ± 0.74 mmHg/ml/min/100 g | CR change vs before administration [4]: (0.04 ± 0.17) mmHg/ml/min/100 g | LVEDP [4]: 1.3 ± 2.5 mmHg | LVEDP change vs before administration [4]: (−0.39 ± 0.38) mmHg | LVP [4]: 107 ± 21 mmHg | LVP change vs before administration [4]: (4.1 ± 4.9) mmHg | LVW [4]: 1.12 ± 0.49 kg · m | LVW change vs before administration [4]: (0.10 ± 0.07) kg · m | TPR [4]: 5248 ± 1878 dyn · s/cm^5 | TPR change vs before administration [4]: (−52 ± 829) dyn · s/cm^5 | dp/dt [4]: 1308 ± 448 mmHg/s | dp/dt change vs before administration [4]: (47 ± 34) mmHg/s | −dp/dt [4]: −958 ± 313 mmHg/s | −dp/dt change vs before administration [4]: (−37 ± 44) mmHg/s | CF [5]: 53.5 ± 21.1 ml/min/100 g | CF change vs before administration [5]: (3.3 ± 3.2) ml/min/100 g | CI [5]: 1.96 ± 0.85 L/min/m^2 | CI change vs before administration [5]: (−0.03 ± 0.23) L/min/m^2 | CO [5]: 1.09 ± 0.39 L/min | CO change vs before administration [5]: (−0.01 ± 0.14) L/min | CR [5]: 1.50 ± 0.71 mmHg/ml/min/100 g | CR change vs before administration [5]: (−0.03 ± 0.12) mmHg/ml/min/100 g | LVEDP [5]: 1 ± 2.4 mmHg | LVEDP change vs before administration [5]: (−0.75 ± 0.34) mmHg | LVP [5]: 106 ± 22 mmHg | LVP change vs before administration [5]: (2.3 ± 6.9) mmHg | LVW [5]: 1.02 ± 0.44 kg · m | LVW change vs before administration [5]: (0.00 ± 0.15) kg · m | TPR [5]: 5683 ± 2354 dyn · s/cm^5 | TPR change vs before administration [5]: (384 ± 1293) dyn · s/cm^5 | dp/dt [5]: 1358 ± 444 mmHg/s | dp/dt change vs before administration [5]: (97 ± 68) mmHg/s | −dp/dt [5]: −925 ± 299 mmHg/s | −dp/dt change vs before administration [5]: (−4 ± 80) mmHg/s | CF [6]: 51.3 ± 21.1 ml/min/100 g | CF change vs before administration [6]: (1.1 ± 4.2) ml/min/100 g | CI [6]: 1.98 ± 0.84 L/min/m^2 | CI change vs before administration [6]: (−0.01 ± 0.28) L/min/m^2 | CO [6]: 1.10 ± 0.38 L/min | CO change vs before administration [6]: (0.00 ± 0.17) L/min | CR [6]: 1.56 ± 0.76 mmHg/ml/min/100 g | CR change vs before administration [6]: (0.02 ± 0.15) mmHg/ml/min/100 g | LVEDP [6]: 0.7 ± 2.6 mmHg | LVEDP change vs before administration [6]: (−1.06 ± 0.54) mmHg | LVP [6]: 106 ± 20 mmHg | LVP change vs before administration [6]: (2.3 ± 5.4) mmHg | LVW [6]: 1.02 ± 0.44 kg · m | LVW change vs before administration [6]: (0.00 ± 0.16) kg · m | TPR [6]: 5535 ± 2356 dyn · s/cm^5 | TPR change vs before administration [6]: (236 ± 1386) dyn · s/cm^5 | dp/dt [6]: 1367 ± 470 mmHg/s | dp/dt change vs before administration [6]: (106 ± 54) mmHg/s | −dp/dt [6]: −947 ± 308 mmHg/s | −dp/dt change vs before administration [6]: (−25 ± 74) mmHg/s | CF [7]: 51.4 ± 19.2 ml/min/100 g | CF change vs before administration [7]: (1.2 ± 4.0) ml/min/100 g | CI [7]: 1.94 ± 0.81 L/min/m^2 | CI change vs before administration [7]: (−0.04 ± 0.11) L/min/m^2 | CO [7]: 1.08 ± 0.36 L/min | CO change vs before administration [7]: (−0.02 ± 0.06) L/min | CR [7]: 1.51 ± 0.68 mmHg/ml/min/100 g | CR change vs before administration [7]: (−0.02 ± 0.14) mmHg/ml/min/100 g | LVEDP [7]: 0.6 ± 2.5 mmHg | LVEDP change vs before administration [7]: (−1.16 ± 0.89) mmHg | LVP [7]: 104 ± 23 mmHg | LVP change vs before administration [7]: (1.2 ± 6.9) mmHg | LVW [7]: 1.02 ± 0.47 kg · m | LVW change vs before administration [7]: (0.00 ± 0.05) kg · m | TPR [7]: 5513 ± 1980 dyn · s/cm^5 | TPR change vs before administration [7]: (214 ± 869) dyn · s/cm^5 | dp/dt [7]: 1348 ± 487 mmHg/s | dp/dt change vs before administration [7]: (87 ± 77) mmHg/s | −dp/dt [7]: −937 ± 289 mmHg/s | −dp/dt change vs before administration [7]: (−16 ± 91) mmHg/s | CF [8]: 51.4 ± 24.5 ml/min/100 g | CF change vs before administration [8]: (1.2 ± 6.2) ml/min/100 g | CI [8]: 1.92 ± 0.78 L/min/m^2 | CI change vs before administration [8]: (−0.06 ± 0.30) L/min/m^2 | CO [8]: 1.07 ± 0.36 L/min | CO change vs before administration [8]: (−0.03 ± 0.18) L/min | CR [8]: 1.51 ± 0.74 mmHg/ml/min/100 g | CR change vs before administration [8]: (−0.02 ± 0.09) mmHg/ml/min/100 g | LVEDP [8]: 0.6 ± 2.4 mmHg | LVEDP change vs before administration [8]: (−1.11 ± 0.87) mmHg | LVP [8]: 102 ± 23 mmHg | LVP change vs before administration [8]: (−1.3 ± 4.7) mmHg | LVW [8]: 0.97 ± 0.46 kg · m | LVW change vs before administration [8]: (−0.05 ± 0.13) kg · m | TPR [8]: 5318 ± 2153 dyn · s/cm^5 | TPR change vs before administration [8]: (19 ± 1444) dyn · s/cm^5 | dp/dt [8]: 1304 ± 459 mmHg/s | dp/dt change vs before administration [8]: (43 ± 100) mmHg/s | −dp/dt [8]: −885 ± 293 mmHg/s
